89 compounds from a melting point compilation (Tetko et al.; mined from patent text by program, amines drawn as free bases though some values may be those of a salt) can be followed below.

Regarding `O=C1CNC(c2ccc(Cl)cc2)=NN1CC(F)(F)F`, the melting point fell in the range of 178 to 180 °C.
Turning to `COC(=O)C(=Cc1ccc(OC)c(OC)c1)NC(C)=O`, the melting point fell in the range of 198 to 200 °C.
`O=c1[nH]c2cc(Cl)ccc2c(=O)cc1NCCc1ccccc1` showed a melting point of 284 to 287 °C.
On to `O=C(Nc1ccccc1)c1cn(-c2ccccc2)c2ccccc2c1=O`, for which the melting point was 203 to 205 °C.
Regarding `Oc1nccc2ccncc12`, the melting point lay in the range of 260 to 262 °C.
With `O=c1c2c(nc3ccc(Cl)cn13)C(=Cc1ccccc1)CC2` the figure was 212 to 213 °C; with `C=CC=CC(=O)Nc1cc2c(Nc3cccc(Br)c3)ncnc2cn1`, 210 to 215 °C.
As to `O=c1ccc(-c2ccc(OCCCN3CCCCC3)nc2)n[nH]1`, the melting point fell in the range of 155 to 158 °C.
In the case of `COC(=O)C1Oc2ccc(C)cc2C(C)(c2ccccc2)O1` (centres undefined) it was 100 °C.
With `CC(=O)OCCOC(C)n1cc(F)c(=O)[nH]c1=O` (centres undefined) the figure was 121 to 122 °C; with `COC(=O)CCc1cc2c(OC)cccc2n1Cc1ccccc1`, 195 to 196 °C.
`Cn1c(C(F)(F)F)cc(=O)n(-c2cc(OCC=C(Cl)Cl)c(Cl)cc2F)c1=O`: the melting point lay in the range of 126 to 127 °C.
With `NC1=NS(=O)N=C1NCCCN(Cc1ccsc1)c1ccccn1` (centres undefined) the figure was 140 to 142 °C.
Turning to `COC(=O)c1ccc(-c2nccc3ccn(S(=O)(=O)c4ccc(OC)cc4)c23)cc1`, the melting point lay in the range of 144 to 146 °C.
With `c1ccc(C2NCCc3sccc32)cc1` (centres undefined) the figure was 79.8 to 80.7 °C; with `CC(=O)NNC(=O)N(O)C1c2ccccc2Oc2ccccc21`, 173 to 176 °C.
`CCCCc1nc2ccn(Cc3cccc(C(=N)N)c3)c(=O)c2n1Cc1ccc2ccc(C(=N)N)cc2c1` displayed a melting point of 190 to 191 °C.
With `CCOC(=O)CC(c1ccccc1)(c1ccccc1)c1ncc[nH]1` the figure was 75 °C; with `O=C(O)c1cccc2[nH]cc(Cc3ccc(OCc4ccc5ccccc5n4)cc3)c12`, 209 to 211 °C.
In turn, `CCOc1cccc(-c2ccnc(Nc3cccc(OC(F)(F)C(F)F)c3)n2)c1` displayed a melting point of 88 to 96 °C.
With `CCN(c1ccc(C(=O)O)cc1)c1cc2c3c(c1)CCCC3CCC2` the figure was 284 to 285 °C; with `Cc1cc(CCC(=O)OC(C)(C)C)cc(-c2nc(=O)c3ccc(Cl)cc3s2)n1`, 186 to 188 °C; with `Cn1ncc(C(=O)N2CC(F)C2)c1C(=O)Nc1ccn2nc(-c3ccccc3)nc2c1`, 259 to 262 °C.
The compound `CC=NNC1=NCCc2ccccc21` came in with a melting point of 152 to 154 °C.
In the case of `ONCc1cccc(I)c1`, the melting point is 63 to 70 °C.
In the case of `CCN(CC)C(=O)c1nc(-c2ccccc2)nc2ccccc12` it was 127 °C; in that of `O[C@@H]1C=CO[C@H](COCc2ccccc2)[C@H]1OCc1ccccc1`, 53 °C.
With `CCCC1=C([N+](=O)[O-])C(c2ccccc2[N+](=O)[O-])c2c[nH]nc2N1` (centres undefined) the figure was 204 °C.
With `c1cc(-n2cnnn2)ccc1SCN1CCOCC1` the figure was 118 to 121 °C; with `N#CCc1nc(C(=O)c2ccc(F)cc2)no1`, 78 to 80 °C.
Turning to `CC(=O)OC(c1ccc(NC(=O)c2ccc(-c3ccc(Cl)cc3)cc2)cc1)C1CCCNC1` (centres undefined), the melting point lay within 200 to 203 °C.
With `CC(NC(=O)Cc1cc(F)cc(F)c1)C(=O)NC1C(=O)NCc2ccc(F)cc21` (centres undefined) the figure was 195 to 200 °C; with `CCCN1C(=O)CC(=O)N(c2ccccc2)c2cc(Cl)ccc21`, 192 to 194 °C.
In the case of `Clc1cncc(Cl)c1CBr` it was 40 to 44 °C; in that of `CCSc1ccc2cccc(CCNC(C)=O)c2c1`, 65 to 66 °C; in that of `COC(=O)c1ccc(OCCCN2CCC(C(=O)c3nc4ccccc4s3)CC2)cc1`, 108 to 110 °C.
In the case of `CN1CCN(C(=O)c2ccc(CCc3cc4cc(C#N)ccc4o3)cc2)CC1` it was 115 to 116 °C.
`O=[N+]([O-])c1ccc(Oc2ccc(C(F)(F)F)cc2Cl)nc1O` returned a melting point of 87 to 93 °C.
The compound `CCc1nn2c(N)cc(N3CCN(C)CC3)nc2c1S(=O)(=O)c1ccccc1` came in with a melting point of more than 250 °C.
With `COc1cc2c(cc1OC)CN(CCCc1ccc(NC(=O)c3cccc4c(=O)c5cccc(OC)c5[nH]c34)cc1)CC2` the figure was 135 °C; with `Clc1csc(-c2cccnc2)n1`, 84 to 86 °C; with `C#CC1(O)CCc2c(O)c3c(c(O)c2C1)C(=O)c1ccccc1C3=O` (centres undefined), 230 °C.
In turn, `O=C(Nc1cccc(C(=O)O)c1OCc1ccccc1Cl)c1ccccc1Cl` came in with a melting point of 182 to 183 °C.
`CC(C)(C)c1ccc(Cn2c(=O)n(Cc3ccc(C(C)(C)C)cc3)c3ccccc32)cc1` came in with a melting point of 164 to 168 °C.
With `CCCc1nn(-c2ccc(C(F)(F)F)cn2)cc1CCCOc1ccc(CCC(=O)O)c(OC)c1` the figure was 114 to 115 °C; with `CN(C(=O)c1ccc2nonc2c1)[C@H]1CC[C@H](N=[N+]=[N-])CC1`, 149 to 150 °C; with `CC1=CC(c2cccc(Cl)c2)C(c2cccs2)=NN1` (centres undefined), 109 °C.
In the case of `COc1ccnc(Cl)c1NS(=O)(=O)c1nc2cc(F)nc(OC)n2n1` it was 187 to 188 °C; in that of `CS(=O)(=O)Nc1ccc(-c2ccc(C(=O)O)c(=O)[nH]2)cc1`, more than 320 °C; in that of `CC(C)(OCc1cc2nc(Cl)ccc2n1S(=O)(=O)c1cccc2ccccc12)C(=O)O`, 209 °C.
Regarding `CCC1(CC)OC(=S)Nc2ccc(-c3cccc(Cl)c3)cc21`, the melting point was in the range of 148 to 150 °C.
With `COc1ccc(C2Cc3[nH]c4ccccc4c3C2)cc1` (centres undefined) the figure was 106 to 109 °C; with `COC(=O)C(c1ccc(Cl)cc1)c1c2ccccc2nc2ccccc12` (centres undefined), 192 to 193 °C; with `O=C(Cn1c(-c2cccc(Cl)c2)nc2cccnc21)NCCN1CCCCC1`, 114 to 115 °C.
In the case of `O=C(O)c1ccc(C(c2ccc(C(=O)O)c([N+](=O)[O-])c2)(C(F)(F)F)C(F)(F)F)cc1[N+](=O)[O-]` it was 235 to 238 °C; in that of `Nc1sc2c(c1C(=O)c1ccco1)CCN(Cc1ccccc1)C2`, 112 to 117 °C.
In the case of `CCCCCCOc1ccc(CCCCCCCCC(=O)NO)cc1` it was 94 to 96 °C; in that of `COc1ccc(C2(C#Cc3cccc(NS(C)(=O)=O)c3)CCCC(=O)C2)cc1OC1CCCC1` (centres undefined), 59 to 62 °C.
As to `CC(C)(C)OC(=O)NC1C=Cc2ccccc2CC1` (centres undefined), the melting point lay in the range of 146 to 148 °C.
With `O=C(O)c1cccc(S(=O)(=O)Cc2c(O[C@H](Cn3ccnc3)c3ccccc3)ccc3c2CCCC3=O)c1` the figure was 236 to 238 °C.
As to `CCCCCCCCCCc1cc2c(s1)NC(=O)CN=C2c1ccccc1C`, the melting point is 100 to 102 °C.
The compound `CC(=O)N1CCCC(=O)c2cc(Cl)c(Cl)cc2CCC1=O` displayed a melting point of 163 to 165 °C.
In the case of `CCCn1cc2c(C3C(=O)Nc4ccc(Br)cc43)nc(NCCC(F)(F)F)nc2n1` (centres undefined) it was more than 300 °C; in that of `CCCCc1ncc(/C=C(\Cc2cccs2)C(=O)O)n1Cc1ccccc1Cl`, 175 to 177 °C.
In turn, `COc1cccc(OCCF)c1-c1ccc(C[C@H](NC(=O)c2c(Cl)cccc2Cl)C(=O)O)cc1` registered a melting point of 206 to 207 °C.
With `COc1cc(S(C)(=O)=O)c(C)cc1OCC(=O)NCC(O)COc1ccccc1` (centres undefined) the figure was 103 to 105 °C; with `COc1cc(OC)nc(NC(=O)NS(=O)(=O)c2cc(Br)cc3c2OS(=O)(=O)C=C3)n1`, 204 to 209 °C.
In the case of `COC(=O)c1cc(C(=O)NN2CCOCC2)c2cc(Cc3ccc(F)cc3)cnc2c1O` it was more than 250 °C; in that of `CCOc1nnc(NCc2ccc(OC)c(Cl)c2)c2cc(Cl)ccc12`, 111 to 115 °C; in that of `CCCCCCCCCC1(C)NC(=S)NC1=S` (centres undefined), 88 to 89 °C.
Regarding `FC(F)(F)CSc1nc2cc(Cl)ccc2[nH]1`, the melting point lay in the range of 127 to 129 °C.
With `CCOCCOc1nc(NC(C)=O)nc2ccc(Cl)nc12` the figure was 185 °C; with `O=[N+]([O-])C(CN(Cc1ccccc1)Cc1ccccc1)=C1NCCCS1`, 108 to 110 °C.
Take `Cc1cc(C=NO)ccc1C(=O)NCc1ccccn1`: the melting point lay within 160 to 161 °C.
In the case of `O=C(Cc1ccc(Cl)c(Cl)c1)N1CCN2CCCC[C@@H]21` it was 102 to 104 °C.
`Oc1ccc2cc(Br)ccc2c1Cl` showed a melting point of 100 to 101 °C.
In the case of `CC(=O)n1c(SC(F)(F)C(F)F)nc(-c2ccccc2)c1-c1ccccc1` it was 143 to 144 °C; in that of `COc1ccc(Br)c(C(=O)N2CCN(S(=O)(=O)c3cccc(F)c3)CC2)c1`, 145 °C.
With `Nc1ncnc2c1nnn2C1C=CCC1` (centres undefined) the figure was 207 to 208 °C.
In the case of `CN1C(=O)SC(Cc2cn(-c3ccccc3)nc2OCc2ccccc2)C1=O` (centres undefined) it was 115 to 116 °C.
As to `FC(F)(F)c1[nH]c(-c2ccc(Cl)cc2)cc1-c1csc(Br)c1`, the melting point was 112 to 115 °C.
In the case of `CC1=CC(N)=NC(c2ccccc2C(F)(F)F)N1c1n[nH]c2ccccc12` (centres undefined) it was 235 to 237 °C.
With `COc1ccc(-c2c(-c3ccc(S(C)(=O)=O)cc3)n(C)n(C)c2=O)cc1` the figure was 245 to 247 °C; with `N#Cc1cc([N+](=O)[O-])ccc1Oc1ccc(Oc2ccccc2)cc1`, 150 to 152 °C; with `Nc1ccc(OCC(=O)OCCOC(=O)COc2ccc(N)cc2)cc1`, 124 to 126 °C.
In the case of `O=C(O)COc1cc(Br)c2oc3cccc(F)c3c(=O)c2c1`, the melting point was in the range of 220 to 223 °C.
In the case of `Cc1cccc(Cl)c1NC(=O)NCc1ccc2c(c1)CN(C1CCC(=O)NC1=O)C2=O` (centres undefined) it was 243 to 245 °C; in that of `COc1cc2c(Nc3ccc(Cl)cc3F)ncnc2cc1OCCSc1ccncc1`, 182 to 186 °C.
In the case of `O=C(Nc1cccc(Oc2ccccc2)c1)c1ccn2c1CSC2c1cccnc1` (centres undefined) it was 144 °C.
